Experimental data as given in US7825139B2, “Compounds and methods for selective inhibition of dipeptidyl peptidase-IV” (Forest Laboratories Holdings Limited (BM), priority 2005, dated 2010).

Experiments:
Zucker Obese Fatty rats = test: Toxicity in rats, oral dosing; format: in vivo, rat; details: 1 mg/kg, 4-24 hrs post-dose, all Zucker Obese Fatty rats tested
From the text: Toxicity in Rats: The Zucker Diabetic Fatty (ZDF) rat model can be used to investigate the effects of the compounds of the invention on both the treatment and prevention of diabetes as rats of this sub-strain are initially pre-diabetic although they develop severe type 2 diabetes characterized by increased HbAl c levels over a period of 6 weeks. The same strain can be used to predict the clinical efficacy of other anti-diabetic drug types. For example, the model predicts the potency and limited clinical efficacy of thiazolidinedione insulin sensitizer compounds. The experimental protocol requires p.o. (oral gavage) administration of either vehicle or test article at indicated doses either QD or BID using a gastric feeding needle with a ball tip, without anesthesia, using hand restraint to adult rats which have been fasted overnight. Animals are monitored for clinical signs at 1, 2, 4 and 8 hour time intervals following the treatment regimen. Whole blood samples (to a maximum level of 10% of the total blood volume every 2 weeks) were collected from the animals from the retro-orbital sinus in accordance with the guidelines of the IACUC committee.
The expected therapeutic dose level could not be reached for the comparative compounds before acute toxicity was observed.

DPP-VII = target: T1, DPP-VII (Homo sapiens, UniProt Q9UHL4); test: DPP-VII IC50 assay (Lys-Pro AMC), selectivity versus DPP-IV; format: biochemical; details: IC50 of DPP-VII divided by IC50 for DPP-IV
T1 construct: The full length cDNAs for human DPP-VII, DPP-VIII, DPP-IX, and FAP were obtained from Open Biosystems; FLAG (N); made in house
From the text: (§1) The term “selectivity ratio” refers to the IC50 value generated in a biochemical assay measuring inhibition of DPP-IV compared to the IC50 value generated in a biochemical assay measuring inhibition of another DPP family member (e.g. DPP-VII, DPP-VIII, DPP-IX or FAP) whereby the ratio is obtained by dividing the IC50 value of DPP-VII, DPP-VIII, DPP-IX or FAP by the IC50 value for DPP-IV.
(§2) Materials. S9 insect cells and Sf-900 II SFM media were from Invitrogen. Anti-FLAG M2 immunoaffinity gel was from Sigma. Gly-Pro-AMC, Lys-Pro AMC, and Ala-Pro AMC were from Enzyme Systems. IC50 calculations were performed by non-linear regression analysis using Prism software (GraphPad). Preparation of DPP-VII, DPP-VIII, DPP-IX, and FAP baculovirus constructs. The full length cDNAs for human DPP-VII, DPP-VIII, DPP-IX, and FAP were obtained from Open Biosystems. […] Baculovirus was prepared using the Bac-to-Bac Baculovirus Expression System (Invitrogen). The cDNAs in the final baculovirus constructs were sequence verified. Baculovirus expression. […] Infection with DPP-VII, DPP-VIII, DPP-IX, and FAP baculoviral constructs were all performed at an MOI of 4. The infected cells were grown for 48 hours and the cell pellets harvested and frozen until purification. DPP-VII was purified using anti-FLAG immunoaffinity gel according to the manufacturer's instructions. DPP-VIII, DPP-IX, and FAP were purified using a B-PER 6xHis Fusion Protein Column Purification Kit from Pierce. IC50 assay. Recombinant DPPs were diluted in reaction buffer to give fluorescence values of 5000-20000 counts in the “enzyme only wells” 20 min after addition of substrate at 27° C. Reaction buffers were 25 mM (2-(4-Morpholino)-Ethane Sulfonic Acid), pH 5.5 for DPP-VII, 25 mM Tris, pH 8, 1% Triton X-100, 100 mM NaCl for DPP-VIII, and 25 mM Tris pH 8 for DPP-1× and FAP. Test wells in a 96-well microtiter plate contained 88 μL of diluted DPP and 2.5 ul of titrated compound in 50 mM glycine, pH 2.6. “Enzyme only” wells contained 88 uL of diluted DPP and 2.5 ul of glycine buffer. “No enzyme” wells contained 88 uL of reaction buffer without DPP and 2.5 ul of glycine buffer. All assays were done in triplicate. The plate was incubated at 27° C. for 10 min and then cooled on ice for 10 min. Ten microliters of substrate diluted in reaction buffer (40 uM final concentration) without Triton or NaCl were then added to all wells followed by incubation at 27C for 20 min. Substrates were Lys-Pro AMC for DPP-VII, and Ala-Pro AMC for DPP-VIII, DPP-IX, and FAP. Fluorescence in each well was measured at settings of 380/460 nm.

DPP-VIII = target: T2, DPP-VIII (Homo sapiens, UniProt Q6V1X1); test: DPP-VIII IC50 assay (Ala-Pro AMC), selectivity versus DPP-IV; format: biochemical; details: IC50 of DPP-VIII divided by IC50 for DPP-IV
T2 construct: The full length cDNAs for human DPP-VII, DPP-VIII, DPP-IX, and FAP were obtained from Open Biosystems; 6xHis (C); made in house
From the text: as §1, §2

FAP = target: T3, FAP (Homo sapiens, UniProt Q12884); test: FAP IC50 assay (Ala-Pro AMC), selectivity versus DPP-IV; format: biochemical; details: IC50 of FAP divided by IC50 for DPP-IV
T3 construct: The full length cDNAs for human DPP-VII, DPP-VIII, DPP-IX, and FAP were obtained from Open Biosystems; 6xHis (N); made in house
T3 sequence (Q12884 1-760): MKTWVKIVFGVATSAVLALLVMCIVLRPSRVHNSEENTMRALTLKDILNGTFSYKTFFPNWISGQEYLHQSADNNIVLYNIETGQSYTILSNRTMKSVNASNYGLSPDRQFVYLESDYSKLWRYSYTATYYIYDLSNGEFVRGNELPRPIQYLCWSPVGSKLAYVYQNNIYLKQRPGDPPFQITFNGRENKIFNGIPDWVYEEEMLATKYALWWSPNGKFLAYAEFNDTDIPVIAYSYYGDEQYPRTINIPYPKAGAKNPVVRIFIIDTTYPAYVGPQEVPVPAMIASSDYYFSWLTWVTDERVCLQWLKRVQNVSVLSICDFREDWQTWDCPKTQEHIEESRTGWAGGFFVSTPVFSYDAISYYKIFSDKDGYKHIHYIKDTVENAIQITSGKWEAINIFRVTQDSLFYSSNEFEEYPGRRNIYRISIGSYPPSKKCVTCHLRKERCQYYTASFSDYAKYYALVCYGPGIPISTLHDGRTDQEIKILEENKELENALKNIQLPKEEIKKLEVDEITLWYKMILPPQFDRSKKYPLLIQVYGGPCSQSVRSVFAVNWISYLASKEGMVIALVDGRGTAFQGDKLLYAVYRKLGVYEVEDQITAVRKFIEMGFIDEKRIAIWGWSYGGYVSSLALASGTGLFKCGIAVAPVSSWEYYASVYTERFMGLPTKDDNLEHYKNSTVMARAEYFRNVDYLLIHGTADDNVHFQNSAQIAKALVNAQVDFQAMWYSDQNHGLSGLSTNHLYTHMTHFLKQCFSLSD
From the text: as §1, §2

T2 sequence (Q6V1X1 whole entry): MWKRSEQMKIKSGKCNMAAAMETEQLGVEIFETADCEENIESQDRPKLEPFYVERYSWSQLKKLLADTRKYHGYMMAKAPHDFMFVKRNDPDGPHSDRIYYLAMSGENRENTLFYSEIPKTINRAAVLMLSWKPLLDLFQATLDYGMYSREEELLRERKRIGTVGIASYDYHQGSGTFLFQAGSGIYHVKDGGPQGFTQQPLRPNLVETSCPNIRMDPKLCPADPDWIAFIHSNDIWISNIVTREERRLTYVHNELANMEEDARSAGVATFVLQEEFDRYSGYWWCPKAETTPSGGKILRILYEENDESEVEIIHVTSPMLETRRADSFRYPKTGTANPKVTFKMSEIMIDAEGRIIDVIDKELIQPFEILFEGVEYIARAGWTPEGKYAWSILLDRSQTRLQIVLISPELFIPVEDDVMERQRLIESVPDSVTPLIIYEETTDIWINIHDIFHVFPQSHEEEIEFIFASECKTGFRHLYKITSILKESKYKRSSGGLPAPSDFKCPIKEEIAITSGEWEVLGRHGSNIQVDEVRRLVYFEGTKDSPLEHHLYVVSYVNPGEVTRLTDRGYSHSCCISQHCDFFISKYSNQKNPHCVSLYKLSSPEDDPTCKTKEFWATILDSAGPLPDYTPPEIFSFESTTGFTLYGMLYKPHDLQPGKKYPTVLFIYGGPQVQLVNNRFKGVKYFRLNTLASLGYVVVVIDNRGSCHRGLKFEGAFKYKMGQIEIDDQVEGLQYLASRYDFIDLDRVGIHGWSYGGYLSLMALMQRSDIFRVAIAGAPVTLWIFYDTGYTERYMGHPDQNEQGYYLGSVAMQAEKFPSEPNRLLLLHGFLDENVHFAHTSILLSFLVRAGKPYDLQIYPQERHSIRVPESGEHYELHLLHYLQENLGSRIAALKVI

Row | Selectivity Ratios DPP-VII (DPP-VII) | Selectivity Ratios DPP-VIII (DPP-VIII) | Selectivity Ratios FAP (FAP) | SMILES | acute toxicity in rats (Zucker Obese Fatty rats)
1 | E (E > 100) | C (10 < C ≦ 50) | D (50 < D ≦ 100) | N[C@@H]1CCN(S(=O)(=O)c2ccccc2F)C[C@H]1C(=O)N1CCC[C@H]1B(O)O [Compound 10, (2R)-1-[(3R,4R)-4-amino-1-(2-fluoro-benzenesulfonyl)-piperidine-3-carbonyl]-boroPro-OH] | –
2 | E (E > 100) | D (50 < D ≦ 100) | E (E > 100) | N[C@@H]1CCN(S(=O)(=O)c2ccccc2)C[C@H]1C(=O)N1CCC[C@H]1B(O)O [Compound 6, (2R)-1-[(3R,4R)-4-amino-1-Benzenesulfonyl-piperidine-3-carbonyl]-boroPro-OH] | –
3 | C (10 < C ≦ 50) | C (10 < C ≦ 50) | D (50 < D ≦ 100) | CC(C)S(=O)(=O)N1CC[C@@H](N)[C@H](C(=O)N2CCC[C@H]2B(O)O)C1 [Compound 18, (2R)-1-[(3R,4R)-4-amino-1-(propane-2-sulfonyl)-piperidine-3-carbonyl]-boroPro-OH] | –
4 | E (E > 100) | C (10 < C ≦ 50) | E (E > 100) | CS(=O)(=O)N1CC[C@@H](N)[C@H](C(=O)N2CCC[C@H]2B(O)O)C1 [Compound 7, (2R)-1-[(3R,4R)-4-amino-1-methanesulfonyl-piperidine-3-carbonyl]-boroPro-OH] | –
5 | E (E > 100) | D (50 < D ≦ 100) | D (50 < D ≦ 100) | N[C@@H]1CCN(S(=O)(=O)c2cccc(F)c2)C[C@H]1C(=O)N1CCC[C@H]1B(O)O [Compound 9, (2R)-1-[(3R,4R)-4-amino-1-(3-fluoro-benzenesulfonyl)-piperidine-3-carbonyl]-boroPro-OH] | –
6 | C (10 < C ≦ 50) | C (10 < C ≦ 50) | C (10 < C ≦ 50) | N[C@@H]1CCN(S(=O)(=O)c2cc(F)c(F)cc2F)C[C@H]1C(=O)N1CCC[C@H]1B(O)O [Compound 12, (2R)-1-[(3R,4R)-4-amino-1-(2,4,5-trifluoro-benzenesulfonyl)-piperidine-3-carbonyl]-boroPro-OH] | –
7 | E (E > 100) | D (50 < D ≦ 100) | D (50 < D ≦ 100) | N[C@@H]1CCN(S(=O)(=O)c2ccc(F)cc2)C[C@H]1C(=O)N1CCC[C@H]1B(O)O [Compound 8, (2R)-1-[(3R,4R)-4-amino-1-(4-fluoro-benzenesulfonyl)-piperidine-3-carbonyl]-boroPro-OH] | –
8 | E (E > 100) | D (50 < D ≦ 100) | E (E > 100) | N[C@@H]1CCN(S(=O)(=O)c2ccc(F)cc2F)C[C@H]1C(=O)N1CCC[C@H]1B(O)O [Compound 11, (2R)-1-[(3R,4R)-4-amino-1-(2,4-difluoro-benzenesulfonyl)-piperidine-3-carbonyl]-boroPro-OH] | –

Continued, molecule first:

Row | SMILES | Selectivity Ratios DPP-VII (DPP-VII) | Selectivity Ratios DPP-VIII (DPP-VIII) | Selectivity Ratios FAP (FAP) | acute toxicity in rats (Zucker Obese Fatty rats)
9 | CC(C)[C@H](N)C(=O)N1CCC[C@H]1B(O)O [PT100] | – | – | – | acute toxicity (death)
10 | N[C@@H]1CCN(S(=O)(=O)c2ccc(-c3ccccc3)cc2)C[C@H]1C(=O)N1CCC[C@H]1B(O)O [Compound 16, (2R)-1-[(3R,4R)-4-amino-1-(biphenyl-4-sulfonyl)-piperidine-3-carbonyl]-boroPro-OH] | E (E > 100) | E (E > 100) | C (10 < C ≦ 50) | –
11 | CS(=O)(=O)c1ccc(S(=O)(=O)N2CC[C@@H](N)[C@H](C(=O)N3CCC[C@H]3B(O)O)C2)cc1 [Compound 13, (2R)-1-[(3R,4R)-4-amino-1-(4-methanesulfonyl-benzenesulfonyl)-piperidine-3-carbonyl]-boroPro-OH] | E (E > 100) | D (50 < D ≦ 100) | E (E > 100) | –
12 | N[C@@H]1CCN(S(=O)(=O)c2cccc(-c3ccccc3)c2)C[C@H]1C(=O)N1CCC[C@H]1B(O)O [Compound 17, (2R)-1-[(3R,4R)-4-amino-1-(biphenyl-3-sulfonyl)-piperidine-3-carbonyl]-boroPro-OH] | C (10 < C ≦ 50) | E (E > 100) | C (10 < C ≦ 50) | –
13 | N[C@@H]1CN(S(=O)(=O)c2cccc3ccccc23)CC[C@H]1C(=O)N1CCC[C@H]1B(O)O [Compound 14, (2R)-1-[(3R,4R)-4-amino-1-(naphthalene-1-sulfonyl)-piperidine-3-carbonyl]-boroPro-OH] | C (10 < C ≦ 50) | C (10 < C ≦ 50) | C (10 < C ≦ 50) | –
14 | O=C(CNC1CCNCC1)N1CCC[C@H]1B(O)O [Compound 20, reference compound] | A (A ≦ 1) | B (1 < B ≦ 10) | E (E > 100) | –
15 | Cl.O=C(CN[C@@H]1CCCNC1)N1CCC[C@H]1B(O)O [Compound 21, reference compound] | A (A ≦ 1) | B (1 < B ≦ 10) | C (10 < C ≦ 50) | –
